Reference: the NIST ThermoML archive (doi:10.1021/acs.jced.6b00470)

Assay: refractive index (other wavelength) (dimensionless)
Conditions: 100 kPa, Liquid, Standard Abbe refractometry

COC(=O)c1ccc(C(C)(C)C)cc1 [methyl 4-tert-butylbenzoate]
refractive index
Conditions	308.15 K	313.15 K	318.15 K	323.15 K	328.15 K	333.15 K	338.15 K	343.15 K	348.15 K	353.15 K
Wavelength=404.7 nm	–	1.5307	1.52841	1.52614	1.52383	1.52158	1.51926	1.51699	1.5147	1.51239
Wavelength=435.8 nm	–	1.52231	1.52004	1.5178	1.51554	1.51332	1.51104	1.50881	1.50655	1.50427
Wavelength=486.1 nm	–	1.5129	1.5107	1.50849	1.50627	1.50407	1.50186	1.49967	1.49745	1.49523
Wavelength=546.1 nm	1.50756	1.50548	1.50329	1.50112	1.49894	1.49678	1.4946	1.49246	1.49026	1.48807
Wavelength=587.6 nm	1.50382	1.50185	1.4997	1.49755	1.49537	1.49326	1.49108	1.48895	1.48678	1.48461
Wavelength=589.3 nm	1.50368	1.50172	1.49957	1.49742	1.49525	1.49314	1.49096	1.48883	1.48667	1.48449
Wavelength=632.8 nm	1.50107	1.49872	1.49659	1.49445	1.49225	1.4902	1.48801	1.48591	1.48376	1.48162
Wavelength=644 nm	1.50004	1.49802	1.49589	1.49375	1.49161	1.4895	1.48735	1.48523	1.48309	1.48094
Wavelength=706.5 nm	1.49686	1.49479	1.49268	1.49056	1.48842	1.48634	1.48419	1.48208	1.47995	1.47781
